US9133186B2, “Hetero ring-fused imidazole derivative having AMPK activating effect” (Shionogi & Co., Ltd., priority 2010, dated 2015)

Molecular target: T1, human AMPK α1β1γ1 enzyme (Homo sapiens, UniProt Q13131+Q9Y478)
T1 construct: purchased Carna Biosciences, Inc
Assay: AMPK activator evaluation, Test Example 1 (mobility shift, FL-Peptide 7)
Assay type: biochemical
Details: human AMPK α1β1γ1, control without compound = 100%; for Emax: read-out: Emax (maximum rate of increase in activity within the measurement range)
Procedure: To a buffer solution consisting of a 50 mM HEPES-NaOH buffer solution (pH 7.0), 100 mM NaCl, 10 mM magnesium chloride, 0.1% bovine serum albumin, 0.2 mM sodium orthovanadate(V), 1 mM ethylene glycol-bis(2-aminoethyl ether)-N,N,N′,N′-tetraacetic acid (EGTA), 5 mM disodium (3-glycerophosphate and 2 mM dithiothreitol, a human AMPK α1β1γ1 enzyme (manufactured by Carna Biosciences, Inc.) was added in an amount to give a conversion rate of approximately 10% by reaction for 2 hours, and a compound dissolved in DMSO was added thereto so as to have a 1% DMSO concentration. The obtained liquid was left to stand for 10 minutes.
To the liquid, a substrate solution consisting of a 50 mM HEPES-NaOH buffer solution (pH 7.0), 100 mM NaCl, 10 mM magnesium chloride, 0.1% bovine serum albumin, 0.2 mM sodium orthovanadate(V), 1 mM ethylene glycol-bis(2-aminoethyl ether)-N,N,N′,N′ tetraacetic acid (EGTA), 5 mM disodium β-glycerophosphate, 2 mM dithiothreitol, 0.4 mM ATP and 3 μM FL-Peptide 7 (manufactured by Caliper Life Sciences, Inc.) was added in equal amount (10 μl in total). The obtained liquid was allowed to react at 25° C. for 2 hours, and 10 μl of 20 mM EDTA was then added thereto to stop the reaction.
To detect phosphorylated fluorescent substrates, the reaction liquid was applied to a measuring device, LabChip EZ Reader II manufactured by Caliper Life Science, Inc., for detecting fluorescence by using differences in mobility due to differences in charge. The setting conditions for the device were pressure, −1.5 PSI; upstream voltage, −2250 V; downstream voltage, −400 V; post sample buffer sip time, 40 seconds; final delay, 120 seconds; and peak order, Product First.

T1 sequence (Q13131 10-559 limits assumed): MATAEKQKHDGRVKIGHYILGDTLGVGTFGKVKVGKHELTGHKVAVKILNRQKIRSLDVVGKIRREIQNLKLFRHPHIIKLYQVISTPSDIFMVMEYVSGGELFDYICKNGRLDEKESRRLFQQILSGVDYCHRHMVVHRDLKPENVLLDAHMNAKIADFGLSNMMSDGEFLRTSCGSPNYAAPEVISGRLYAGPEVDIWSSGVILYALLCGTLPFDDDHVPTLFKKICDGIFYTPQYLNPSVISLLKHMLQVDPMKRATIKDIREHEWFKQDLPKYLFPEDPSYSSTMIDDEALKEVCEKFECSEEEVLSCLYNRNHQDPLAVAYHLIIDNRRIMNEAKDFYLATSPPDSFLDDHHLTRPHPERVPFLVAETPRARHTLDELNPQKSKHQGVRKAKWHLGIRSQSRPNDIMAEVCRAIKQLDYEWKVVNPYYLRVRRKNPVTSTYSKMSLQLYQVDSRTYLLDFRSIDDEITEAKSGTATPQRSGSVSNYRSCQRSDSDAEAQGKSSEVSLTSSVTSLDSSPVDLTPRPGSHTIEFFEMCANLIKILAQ
T1 sequence (Q9Y478 whole entry): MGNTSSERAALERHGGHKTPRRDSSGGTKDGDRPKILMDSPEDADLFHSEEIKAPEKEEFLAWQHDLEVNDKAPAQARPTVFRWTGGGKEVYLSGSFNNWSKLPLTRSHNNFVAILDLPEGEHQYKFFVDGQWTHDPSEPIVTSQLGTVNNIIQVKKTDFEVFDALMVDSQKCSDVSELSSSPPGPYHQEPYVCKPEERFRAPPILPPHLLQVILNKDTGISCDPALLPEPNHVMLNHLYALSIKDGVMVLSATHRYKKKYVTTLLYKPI
T1 sequence (P54619 whole entry partner): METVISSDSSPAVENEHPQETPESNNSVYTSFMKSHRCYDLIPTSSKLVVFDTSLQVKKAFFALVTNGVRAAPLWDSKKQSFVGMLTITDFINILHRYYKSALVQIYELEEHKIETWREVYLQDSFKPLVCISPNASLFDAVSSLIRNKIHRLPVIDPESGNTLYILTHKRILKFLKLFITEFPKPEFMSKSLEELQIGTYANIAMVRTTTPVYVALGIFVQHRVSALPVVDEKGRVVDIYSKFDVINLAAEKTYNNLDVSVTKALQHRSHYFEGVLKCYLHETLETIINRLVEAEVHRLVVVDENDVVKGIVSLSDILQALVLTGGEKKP

Row | EC150 (compound concentration showing 150% relative to the control) | Emax | SMILES
1 | 380 nM | 186% | CC(C)(CO)c1ccc(Oc2nc3nc(-c4ccc(N5CCOCC5)cc4)c(Cl)cc3[nH]2)cn1 [Compound D-9]
2 | 18 nM | 270% | CC(=O)NCCCOc1ccc(-c2nc3nc(Oc4ccc(C(C)(C)NC(C)=O)cc4)[nH]c3cc2Cl)cc1 [Compound D-109]
3 | 430 nM | 182% | CC(=O)NC(C)(C)c1ccc(Oc2nc3nc(-c4ccc(N5CCOCC5)cc4)c(Cl)cc3[nH]2)cn1 [Compound D-1]
4 | 80 nM | 267% | CC(=O)NC(C)(C)c1ccc(Oc2nc3nc(-c4ccc(NCCO)cc4)c(Cl)cc3[nH]2)cc1 [Compound D-62]
5 | 180 nM | 214% | CC(=O)NC(C)(C)c1ccc(Oc2nc3nc(-c4ccc(C5=CCOCC5)cc4)c(Cl)cc3[nH]2)cn1 [Compound D-70]
6 | 66 nM | 224% | CC(=O)NC(C)(C)c1ccc(Oc2nc3nc(-c4ccc(C5(CO)CCC5)cc4)c(Cl)cc3[nH]2)cc1 [Compound D-58]
7 | 42 nM | 252% | CC(C)(C)C(=O)NC(C)(C)c1ccc(Oc2nc3nc(-c4ccc(N5CCOCC5)cc4)c(Cl)cc3[nH]2)cc1 [Compound D-65]
8 | 19 nM | 314% | CNc1ncc(Oc2nc3nc(-c4ccc(N5CCOCC5)cc4)c(Cl)cc3[nH]2)cn1 [Compound D-31]
9 | 68 nM | 211% | COC(=O)NC(C)(C)c1ccc(Oc2nc3nc(-c4ccc(N5CCOCC5)cc4)c(Cl)cc3[nH]2)cn1 [Compound D-56]
10 | 150 nM | 238% | CC(=O)NC(C)(C)c1ccc(Oc2nc3nc(-c4ccc(C5COC5)cc4)c(Cl)cc3[nH]2)cc1 [Compound D-111]
11 | 860 nM | 174% | CC(C)(C(N)=O)c1ccc(Oc2nc3nc(-c4ccc(C5(CO)CC5)cc4)c(Cl)cc3[nH]2)cn1 [Compound D-71]
12 | 0.6 nM | 310% | CC(=O)NC(C)(C)c1ccc(Oc2nc3nc(-c4ccc(-c5ccccc5O)cc4)c(Cl)cc3[nH]2)cc1 [Compound D-39]
13 | 17 nM | 254% | CC(=O)NC(C)(C)c1ccc(Oc2nc3nc(-c4ccc(C5=CCOCC5)cc4)c(Cl)cc3[nH]2)cc1 [Compound D-73]
14 | 8300 nM | 159% | CNCC(C)(C)c1ccc(Oc2nc3nc(-c4ccc(N5CCOCC5)cc4)c(Cl)cc3[nH]2)cc1 [Compound D-41]
15 | 220 nM | 192% | CC(C)(CO)c1ccc(Oc2nc3nc(-c4ccc(C5(CO)CC5)cc4)c(Cl)cc3[nH]2)cn1 [Compound D-72]
16 | 220 nM | 192% | CN1CCc2cc(-c3nc4nc(Oc5ccc(C(C)(C)C(N)=O)cc5)[nH]c4cc3Cl)ccc21 [Compound D-3]
17 | 69 nM | 226% | CC(C)(C(N)=O)c1ccc(Oc2nc3nc(-c4ccc(N5CCOCC5)cc4)c(Cl)cc3[nH]2)cc1F [Compound D-12]
18 | 110 nM | 252% | CC(C)(C(N)=O)c1ncc(Oc2nc3nc(-c4ccc(N5CCOCC5)cc4)c(Cl)cc3[nH]2)cn1 [Compound D-54]

Continued, compound first:

Row | SMILES | EC150 (compound concentration showing 150% relative to the control) | Emax
19 | Cc1ccc(Oc2nc3nc(-c4ccc(OCC(C)C)cc4)c(Cl)cc3[nH]2)cc1C(=O)O [Compound C-33] | 52 nM | 329%
20 | O=C(O)COc1ccc(Oc2nc3nc(-c4ccc(N5CCOCC5)cc4)c(Cl)cc3[nH]2)cc1 [Compound B-110] | 160 nM | 288%
21 | Cc1ccc(Oc2nc3nc(-c4ccc(N5CCOCC5)cc4)c(Cl)cc3[nH]2)cc1 [Compound B-121] | 97 nM | 278%
22 | Cc1ccc(Oc2nc3nc(-c4cccc(O)c4)c(Cl)cc3[nH]2)cc1C(=O)O [Compound B-40] | 110 nM | 297%
23 | COc1ccc(Oc2nc3nc(-c4ccc(N5CCOCC5)cc4)c(Cl)cc3[nH]2)cc1C(=O)O [Compound C-24] | 17 nM | 237%
24 | CC(C)(C(=O)NCCO)c1ccc(Oc2nc3nc(-c4ccc(N5CCOCC5)cc4)c(Cl)cc3[nH]2)cc1 [Compound C-107] | 300 nM | 232%
25 | CC(=O)NC(C)(C)c1ccc(Oc2nc3nc(-c4ccc(N5CCOCC5)cc4)c(Cl)cc3[nH]2)cc1 [Compound C-119] | 130 nM | 237%
26 | Cc1ccc(Oc2nc3nc(N4CCCCC4)c(Cl)cc3[nH]2)cc1C(=O)O [Compound B-3] | 23 nM | 313%
27 | Cc1ccc(Oc2nc3nc(-c4ccc(CO)cc4)c(Cl)cc3[nH]2)cc1C(=O)O [Compound B-13] | 76 nM | 311%
28 | NCc1ccc(Oc2nc3nc(-c4ccc(N5CCOCC5)cc4)c(Cl)cc3[nH]2)cc1 [Compound B-117] | 370 nM | 243%
29 | Cc1ccc(Oc2nc3cc(-c4ccc(N5CCOCC5)cc4)c(C)nc3[nH]2)cc1C(=O)O [Compound B-81] | 25 nM | 283%
30 | CC(C)(CO)c1ccc(Oc2nc3nc(-c4ccc(N5CCOCC5)cc4)c(Cl)cc3[nH]2)cc1 [Compound C-99] | 170 nM | 205%
31 | NC(=O)c1cccc2ccc(Oc3nc4nc(-c5ccc(N6CCOCC6)cc5)c(Cl)cc4[nH]3)cc12 [Compound B-113] | 13 nM | 316%
32 | Cc1ccc(Oc2nc3nc(-c4ccccc4)c(Cl)cc3[nH]2)cc1C(=O)O [Compound B-10] | 280 nM | 290%
33 | O=C(O)c1cncc(Oc2nc3nc(-c4ccc(N5CCOCC5)cc4)c(Cl)cc3[nH]2)c1 [Compound B-126] | 180 nM | 262%
34 | Cc1ccc(Oc2nc3nc(-c4ccc(OCC(C)(C)O)cc4)c(Cl)cc3[nH]2)cc1C(=O)O [Compound C-21] | 36 nM | 338%
35 | Clc1cc2[nH]c(Oc3cccc(-c4nnn[nH]4)c3)nc2nc1-c1ccc(N2CCOCC2)cc1 [Compound C-1] | 66 nM | 295%
36 | COc1ccc(Oc2nc3nc(-c4ccc(N5CCOCC5)cc4)c(Cl)cc3[nH]2)cn1 [Compound C-100] | 590 nM | 212%
37 | CCc1ccc(Oc2nc3nc(-c4ccc(N5CCOCC5)cc4)c(Cl)cc3[nH]2)cc1C(=O)O [Compound C-70] | 4.2 nM | 335%
38 | O=P(O)(O)c1cccc(Oc2nc3cc(Cl)c(-c4ccc(N5CCOCC5)cc4)nc3[nH]2)c1 [Compound C-118] | 2.1 nM | 334%
39 | OCCc1ccc(Oc2nc3nc(-c4ccc(N5CCOCC5)cc4)c(Cl)cc3[nH]2)cc1 [Compound B-137] | 25 nM | 301%
40 | COc1ccc(-c2ccc(-c3nc4nc(Oc5ccc(C)c(C(=O)O)c5)[nH]c4cc3Cl)cc2)cc1 [Compound C-29] | 8.3 nM | 349%
41 | O=C(O)/C=C/c1cccc(Oc2nc3nc(-c4ccc(N5CCOCC5)cc4)c(Cl)cc3[nH]2)c1 [Compound B-109] | 140 nM | 315%
42 | Cc1ccc(Oc2nc3cc(-c4ccc5c(ccn5C)c4)ccc3[nH]2)cc1C(=O)O [Compound B-5] | 4700 nM | 176%
43 | Cc1ccc(Oc2nc3nc(-c4ccc(N5CCCCC5=O)cc4)c(Cl)cc3[nH]2)cc1C(=O)O [Compound C-88] | 120 nM | 298%
44 | OCc1ccc(Oc2nc3nc(-c4ccc(N5CCOCC5)cc4)c(Cl)cc3[nH]2)cc1 [Compound B-131] | 44 nM | 298%
45 | O=C(O)CCc1ccc(Oc2nc3nc(-c4ccc(N5CCOCC5)cc4)c(Cl)cc3[nH]2)cc1 [Compound B-136] | 27 nM | 333%
